Experimental data as given in patent publication US12208080B2, “Compositions and methods for modulation of extracellular vesicle release and treatment of neurological disorders” (GEORGE MASON RESEARCH FOUNDATION, INC., priority 2018, dated 2025).
Structures can show the parent of a compound that is named as a salt.

Legend:
Type in all cases: cell-based
[1] = test system: autophagy proteins (p62, LC3, ATG12-ATG5, ATG12, Beclin-1) in U1 cells; assay: Autophagy protein profile, CBD versus autophagy drugs, in U1 cells and their EVs (Western blot); details: 5 days; for EV-associated LC3 II / EV-associated LC3 I / EV-associated p62: Bafilomycin A1 50 nM, SB 203580 20 μM, Wortmannin 2 nM; for EV-associated LC3 II: vs untreated infected control; for EV-associated LC3 I / EV-associated p62: CBD 10 μM, lower panel
Protocol: FIGS. 18A-18B are gels showing CBD promotes autophagy turnover, resulting in a decrease in extracellular autophagosomal secretion. A) U1 cells (1×10^6) were treated±CBD (10 μM) for the following incubation periods: 0, 6, 24, and 48 hours. Cells were pelleted and lysed, exosomes from supernatants were enriched with NT80/82 beads overnight at 4° C. Samples were run through SDS-PAGE and western blotted for autophagy proteins (p62 and LC3), and Actin. B) U1 cells (1×10^6) were treated±10 μM CBD (every day), Rapamycin (50 nM), INK128 (50 nM), Bafilomycin A1 (50 nM), SB 203580 (20 μM), Wortmannin (2 nM) for a 5-day incubation period. Cells were pelleted and lysed, exosomes from supernatants were enriched using NT80/82 beads overnight at 4° C. Samples were run through SDS-PAGE and western blotted for autophagy proteins (p62, LC3, ATG12-ATG5, ATG12, Beclin-1), and Actin.
FIGS. 21A-21K are graphs showing normalized densitometry analysis of CBD and autophagy drug treatment on HIV-1 infected monocytes. Intracellular (A) p62, (B) LC3 I, (C) LC3 II, (D) ATG12-ATG5 complex, (E) ATG12, and (F) Beclin-1, and extracellular (G) p62, (H) LC3 I, (I) LC3 II, (J) ATG12-ATG5 complex, and (K) Beclin-1 densitometry counts were calculated from the Western blot data in FIG. 5B, normalized to respective intracellular and extracellular Actin levels, and plotted.
To determine the specific points at which CBD inhibits intracellular and extracellular autophagosome formation and secretion, we compared CBD treatment of U1 monocytes with known inhibitors of different points in the autophagy pathway. Cell viability was assessed among a panel of titrated autophagy drugs and the least toxic concentration per drug was utilized (FIG. 20). We treated U1 cells with CBD (10 μM) every day, Rapamycin (50 nM), INK128 (50 nM), Bafilomycin A1 (50 nM), SB 203580 (20 μM), or Wortmannin (2 nM) for 5 days. Our rationale for using these drugs was that they regulate different steps of autophagy including nucleation inhibition by inhibiting MTOR activity (Rapamycin, INK128) or by inhibiting pre-autophagosomal VPS34 complex activity (Wortmannin, SB 203580), and autophagosome-lysosome fusion inhibition (Bafilomycin A1). Therefore, a side-by-side comparison to CBD would potentially allow for a better definition of which step of autophagosome formation is primarily regulated by CBD. U1 cells were treated with the autophagy regulators and harvested along with their corresponding supernatants for further analysis using Western blot against p62, LC3, ATG12-ATG5 complex, free ATG12, Beclin-1, and Actin. Results in FIG. 18B (intracellular proteins, top panel) show autophagy protein profiles associated with the various autophagy regulators. […] The corresponding supernatants were enriched for EVs and also analyzed for the presence of autophagy proteins.

[2] = test system: HTLV-1 infected T-cells (HUT 102); assay: EV release from HTLV-1 infected T-cells, Western blot for Tax, CD63, CD9; details: 10 μM AZT, 10K units IFN-α or both, 5 days, FIG. 6
Protocol: HTLV-1 infected T-cells (HUT 102) were treated with 10 μM AZT, 10K units of IFN-α, or a combination of the two for 5 days. Resulting supernatants were enriched for extracellular vesicles using NT80/82 and analyzed by Western blot for the presence of Tax, CD63, CD9, and Actin.
The incorporation of the human T-lymphotropic virus type 1 (HTLV-1) protein, Tax, into extracellular vesicles has been implicated in enhanced survival of recipient cells thereby contributing to a cancer phenotype. Applicant examined the effect of Azidothymidine (AZT) and interferon-α (IFN-α), both therapeutics commonly used in the treatment of HTLV-1, on the release of EVs from HTLV-1 infected cells. Here, HTLV-1 infected T-cells (HUT 102) were treated with 10 μM AZT, 10K units of IFN-α, or a combination of the two for 5 days. Resulting supernatants were enriched for extracellular vesicles using NT80/82 and analyzed by Western blot for the presence of Tax, CD63, CD9, and Actin.

[3] = test system: ESCRT pathway proteins (VPS4); assay: Western blot of ESCRT pathway proteins in U1 whole cell extracts; details: 0.1, 1, 10 μM, 5 days, FIG. 5B
Protocol: U1 cells were pretreated with cART (45 μM) for 3 days followed by an additional dose of cART and tetracycline antibiotics (10 nM) for 5 days. Cells were lysed, and extracts were used for Western blot analysis for ESCRT proteins [ESCRT-1 (TSG101), -11 (EAP20, EAP45), -III (CHMP6), and exit (VPS4)] and Actin levels. […]
U1 cells were treated with a titration of ethylene glycol-bis(p-aminoethyl ether)-N,N,N′,N′-tetraacetic acid (EGTA) (0.1, 1, and 10 μM) for 5 days and whole cell extracts were analyzed by Western blot for ESCRT pathway proteins and Actin.
Tetracycline class antibiotics including tetracycline, oxytetracycline, minocycline, doxycycline, methacycline, and demeclocycline have the potential to mitigate EV-associated pathogenesis by also modulating EV release. […] The tetracycline antibiotic family are chelators of divalent cations, including Ca2+ and Mg2+. Therefore, Applicant also tried to determine whether the chelating property of Oxytetracycline could possibly be responsible for the manipulation of the ESCRT pathway proteins levels.

[4] = test system: RNA polymerase II (Pol II) loading; assay: Chromatin immunoprecipitation of Pol II, qPCR for TAR DNA; details: U1; CBD 10 μM, Flavo 50 nM; 2-hour and 6-hour; FIG. 15C
Protocol: FIGS. 15A-15C are graphs and gels showing cannabidiols lower intracellular viral transcription and downstream viral products. U1 cells (1×10^6) were treated with a titration of CBD (1, 5, 10 μM) and THC (1, 5, 10 μg/mL) every day for 5 days. A) Intracellular RNA was isolated and analyzed through RT-qPCR for HIV-1 viral transcripts TAR and env. Each bar represents an average of three independent replicates. B) U1 cells (2×10^6) were treated with a titration of CBD (1, 5, 10 μM) every day for 5 days. Cells pellets were lysed, run through SDS-PAGE, and western blotted for (p-)/NF-κB, autophagosomal markers (p63, LC3), EV biogenesis marker VPS4, viral markers (gp120, Nef, p24), and Actin. C) U1 cells (5×10^6) were treated±CBD (10 μM) and Flavopiridol hydrochloride (50 nM; indicated as Flavo) and incubated for the following time points: 0 minutes, 2 hours and 6 hours. Cells were cross-linked with 1% formaldehyde solution and ChIP-ed for IgG and Pol II. ChIP DNA samples were analyzed via qPCR for TAR and env. Student's t-test was used for statistical analysis, where *p-value≤0.05; **p-value≤0.01, ***p-value≤0.001. […]
U1 monocytes were treated with CBD (10 μM) and Flavo (50 nM) for short periods (0, 2 and 6 hours) due to the fact that HIV-1 transcription activity is a rapid event that can be scored using chromatin immunoprecipitation (ChIP) assay for factor occupancy. […]

[5] = CBD 10 μM every day, Rapamycin 50 nM, INK128 50 nM, FIG. 18B top panel

CO/C1=C\C(C)=C\[C@@H](C)[C@@H](O)[C@@H](C)C/C(C)=C/C=C/[C@H](OC)[C@@H]([C@@H](C)[C@@H](O)[C@H](C)[C@@]2(O)C[C@@H](O)[C@H](C)[C@@H](C(C)C)O2)OC1=O [Bafilomycin A1]
EV-associated LC3 II [1]: elevated levels | EV-associated LC3 I ([1]; Rapamycin 50 nM, INK128 50 nM): elevated levels | EV-associated p62 ([1]; Rapamycin 50 nM, INK128 50 nM): sustained levels

IFN-α
amount of vesicles released (CD63 and CD9) [2]: decreases the amount of vesicles released

O=C(O)CN(CCOCCOCCN(CC(=O)O)CC(=O)O)CC(=O)O [EGTA, ethylene glycol-bis(p-aminoethyl ether)-N,N,N′,N′-tetraacetic acid]
levels of measured ESCRT proteins [3]: no change

CC(C)n1nc(-c2ccc3oc(N)nc3c2)c2c(N)ncnc21 [INK128]
intracellular ATG12-ATG5 [1, 5]: low levels | intracellular Beclin-1 [1, 5]: high levels | intracellular LC3 I [1, 5]: low levels | EV-associated LC3 I ([1]; Rapamycin 50 nM, INK128 50 nM): reduction | EV-associated p62 ([1]; Rapamycin 50 nM, INK128 50 nM): reduction

Cc1cn([C@H]2C[C@H](N=[N+]=[N-])[C@@H](CO)O2)c(=O)[nH]c1=O [AZT, 3′-azido-2′3′-di deoxythymidine]
amount of vesicles released (CD63 and CD9) [2]: increase in the amount of vesicles release

C[S+]([O-])c1ccc(-c2nc(-c3ccncc3)c(-c3ccc(F)cc3)[nH]2)cc1 (stereo not drawn) [SB 203580]
EV-associated LC3 II [1]: elevated levels | EV-associated LC3 I ([1]; Rapamycin 50 nM, INK128 50 nM): elevated levels | EV-associated p62 ([1]; Rapamycin 50 nM, INK128 50 nM): sustained levels

CN1CC[C@H](c2c(O)cc(O)c3c(=O)cc(-c4ccccc4Cl)oc23)[C@H](O)C1 [Flavo, Flavopiridol hydrochloride hydrate]
Pol II-associated TAR DNA versus untreated [4]: statistically significant decreases
